Data from publication PMC8465942, “Cyano- and Ketone-Containing Selenoesters as Multi-Target Compounds against Resistant Cancers” (Cancers, 2021).
Like-named read-outs stand apart in the source and are kept apart here. Marks after values point to notes of the source that are not given here.

Experiments:
[1] = test system: HeLa (cervical adenocarcinoma); assay: Cytotoxicity on HeLa cells; type: cell-based, human; conditions: ratio IC50 non-tumour cells / IC50 cancer cells
[2] = test system: HepG2 (hepatocellular carcinoma); assay: Cytotoxicity on HepG2 cells; type: cell-based; conditions: Homo sapiens
Description: (§1) The activity of selenoesters was tested on several cancer cell lines, including HepG2 (hepatocellular carcinoma, CCL-23TM, ATCC); HeLa (cervical adenocarcinoma, CCL-2TM, ATCC); B16 (skin melanoma, CCL-6322TM, ATCC); and a non-cancerous cell line, HDF (human dermal fibroblasts, Sigma-Aldrich). HepG2, HeLa, B16, and HDF cell lines were cultivated in EMEM medium supplemented with 10% FBS, 2 mM L-glutamine, and 1% penicillin-streptomycin mixture. The HaCaT cell line was cultivated in DMEM medium supplemented with 10% FBS and 1% penicillin-streptomycin mixture. All of the cells were cultivated in a CO2 incubator (5% CO2, 37 °C). Twice per week, the cell lines were passaged according to a standardized protocol with a trypsin-EDTA solution.
(§2) The selectivity indexes (SI) were calculated as the ratio of the IC50 value in the non-tumour cells and the IC50 in the cancer cell lines. The compound’s activity towards cancer cells is considered as strongly selective if the selectivity index (SI) value is higher than 6, moderately selective if 3 < SI < 6, slightly selective if 1 < SI < 3, and non-selective if SI is lower than 1 [16].

[3] = test system: Colo 320/MDR-LRP human colonic adenocarcinoma cell line; assay: Cytotoxicity (MTT) on resistant Colo 320 cells; type: cell-based; conditions: for IC50: Homo sapiens, read-out: Colo 320 (IC50 µM) Mean; for SI MRC-5/Colo 320: ratio IC50 non-tumour cells / IC50 cancer cells
From the text: (§3) Three cell lines have been used in this study: the doxorubicin-sensitive Colo 205 (CCL-222, ATCC, Manassas, VA, USA) human colonic adenocarcinoma cell line; the multidrug resistant Colo 320/MDR-LRP expressing P-gp (MDR1)-LRP (CCL-220.1, ATCC) human colonic adenocarcinoma cell line; and the MRC-5 human embryonal lung fibroblast cell line (CCL-171, ATCC). The colon adenocarcinoma cell lines were purchased from LGC Promochem (Teddington, UK), and the MRC-5 cell line was purchased from Sigma-Aldrich (Merck KGaA, Darmstadt, Germany). Their culture conditions are as follows: Colo 205 (CCL-222, ATCC) and Colo 320/MDR-LRP expressing P-gp (MDR1)-LRP (CCL-220.1, ATCC) human colon adenocarcinoma cell lines were cultured in RPMI 1640 medium, supplemented with 10% FBS, 2 mM L-glutamine, 1 mM Na-pyruvate, and […]. The cell lines were incubated at 37 °C, 5% CO2, and 95% air atmosphere. The semi-adherent human colon cancer cells were detached with a Trypsin-Versene (EDTA) solution for 5 min at 37 °C. MRC-5 human embryonal lung fibroblast cells were cultured in EMEM containing 4.5 g/L of glucose and supplemented with a non-essential amino acid mixture, a selection of vitamins, and 10% FBS. The cell lines were incubated at 37 °C, 5% CO2, and 95% air atmosphere.
(§4) The effects of increasing concentrations of the compounds on cell growth were tested in 96-well flat-bottomed microtiter plates. Moreover, 10^4 of human colonic adenocarcinoma cells in 100 μL of the medium (RPMI-1640) were added to each well, except for the medium control wells. The adherent human embryonic lung fibroblast cell line was seeded in the EMEM medium for 4 h before the assay. The two-fold serial dilutions of the compounds were made in a separate plate (0.19–100 μM), and then transferred to the plates containing the adherent corresponding cell line. Culture plates were incubated at 37 °C for 24 h. At the end of the incubation period, 20 μL of MTT (thiazolyl blue tetrazolium bromide) solution (from a 5 mg/mL stock solution) were added to each well. After incubation at 37 °C for 4 h, 100 μL of sodium dodecyl sulfate (SDS) solution (10% SDS in 0.01 M HCl) was added to each well, and the plates were further incubated at 37 °C overnight. Cell growth was determined by measuring the optical density (OD) at 540 nm (ref. 630 nm) with a Multiscan EX ELISA reader (Thermo Labsystems, Cheshire, WA, USA). Inhibition of cell growth was expressed as IC50 values, defined as the inhibitory dose that reduces the growth of the cells exposed to the tested compounds by 50%. IC50 values and the SD of triplicate experiments were calculated by using GraphPad Prism software version 5.00 for Windows, with a non-linear regression curve fit (GraphPad Software, San Diego, CA, USA; www.graphpad.com, accessed on 12 July 2021). Doxorubicin (from a 2 mg/mL stock solution, Teva Pharmaceuticals) was used as a positive control.
as §2

B16 (skin melanoma) = assay: Cytotoxicity on B16 cells; type: cell-based, murine; conditions: Mus musculus
Description: as §1, §2

[4] = Cytotoxicity (MTT) on normal MRC-5 fibroblasts; type: cell-based; conditions: human
From the text: as §3, §4

HaCaT cell line = assay: Toxicity on HaCaT cells (IC10 used as dose); type: cell-based; conditions: Homo sapiens
Description: as §1, with “solution. […]” for “solution.”
Wound healing activity of selenoesters was evaluated as the ability of the cells to migrate and close the gap created on the monolayer of human keratinocytes (HaCaT cell line). The tested substances were applied in the highest possible non-toxic concentration (IC10, concentration inhibiting 10% of the population). In general, ketone-selenoesters were more toxic (except K4 and K1) than cyano-selenoesters (except N4); therefore, they were applied at lower doses (0.17–0.30 µM) when compared to cyanoselenoesters (0.36–0.64 µM). Compounds K1, K4, and N4 were applied at a concentration of 0.30, 0.46, and 0.20 µM, respectively. As could be seen in Table 8, all ketone-selenoesters stimulated wound healing more effectively in comparison to both untreated control (p < 0.0000005) and allantoin (p < 0.00005). […] Only samples N1, N2, N4, and N7 closed effectively the damaged wound in 24 h, with the gap closure around 70%.

[5] = 24 h, MTT, read-out: MRC-5 (IC50 µM) Mean
[6] = concentration inhibiting 10% of the population, highest non-toxic concentration, read-out: Dose IC10

Row | SMILES | SI MRC-5/HeLa [1] | IC50 [2] [µM] | IC50 ([3]; COLO 320, 24 h) [µM] | SI MRC-5/Colo 320 [3] | IC50 (B16 (skin melanoma)) [µM] | IC50 at 24 h [4, 5] [µM] | IC10 (HaCaT cell line; read-out: Dose IC10 (µM)) [µM] | IC50 ([3]; COLO 320, 24 h, MTT) [µM] | IC50 at 24 h [4] [µM] | IC10 (HaCaT cell line; [6]) [µM]
1 | CC(=O)C[Se]C(=O)c1ccc(C(C)(C)C)cc1 [K7, Se-(2-Oxopropyl) 4-(Tert-butyl)benzoselenoate] | 1.4 | 3.7 | 2.57 | 1.45 | 1.4 | 3.72 | 0.24 |  |  | 
2 | CC(=O)C[Se]C(=O)c1ccccc1F [K2, Se-(2-Oxopropyl) 2-Fluorobenzoselenoate] | 1.0 | 2.2 |  | 1.06 | 1.2 |  |  | 2.38 | 2.53 | 0.2
3 | CC(=O)C[Se]C(=O)c1cccc(C(F)(F)F)c1 [K5, Se-(2-Oxopropyl) 3-(Trifluoromethyl)benzoselenoate] | 1.2 | 2.4 |  | 1.43 | 1.1 |  |  | 2.17 | 3.11 | 0.25
4 | CC(=O)C[Se]C(=O)c1ccc(Br)cc1 [K3, Se-(2-Oxopropyl) 4-Bromobenzoselenoate] | 1.1 | 3.1 | 2.15 | 1.33 | 1.7 | 2.86 | 0.24 |  |  | 
5 | N#CC[Se]C(=O)c1ccccc1C(F)(F)F [N4, Se-(Cyanomethyl) 2-(Trifluoromethyl)benzoselenoate] | >6 * | 5.2 |  | >6 * | 1.4 |  |  | 5.57 | > 100 | 0.2
6 | CC(=O)C[Se]C(=O)c1ccc(F)c(Cl)c1 [K6, Se-(2-Oxopropyl) 3-Chloro-4-fluorobenzoselenoate] | 1.6 | 2.9 |  | 1.72 | 1.3 |  |  | 2.1 | 3.62 | 0.22
7 | CC(=O)C[Se]C(=O)c1cccs1 [K1, Se-(2-Oxopropyl) Thiophene-2-carboselenoate] | 1.5 | 2.3 |  | 1.52 | 1.4 |  |  | 1.47 | 2.24 | 0.3
8 | N#CC[Se]C(=O)c1cc(C(F)(F)F)cc(C(F)(F)F)c1 [N7, Se-(Cyanomethyl) 3,5-Bis(trifluoromethyl)benzoselenoate] | >6 * | 11.8 |  | >6 * | 1.6 |  |  | 3.78 | > 100 | 0.61
9 | N#CC[Se]C(=O)c1cccc(F)c1 [N2, Se-(Cyanomethyl) 3-Fluorobenzoselenoate] | >6 * | 5.6 |  | >6 * | 2.6 |  |  | 7.01 | > 100 | 0.36
10 | CC(=O)C[Se]C(=O)c1ccccc1C(F)(F)F [K4, Se-(2-Oxopropyl) 2-(Trifluoromethyl)benzoselenoate] | 1.5 | 4.3 | 1.48 | 2.45 | 2 | 3.63 | 0.46 |  |  | 
11 | CC(=O)C[Se]C(=O)c1cc(F)c(F)cc1F [K8, Se-(2-Oxopropyl) 2,4,5-Trifluorobenzoselenoate] | 1.3 | 4 |  | 1.05 | 1.4 |  |  | 2.37 | 2.5 | 0.17
12 | N#CC[Se]C(=O)c1ccc(Br)cc1 [N3, Se-(Cyanomethyl) 4-Bromobenzoselenoate] | >6 * | 9.6 |  | >6 * | 2.8 |  |  | 4.37 | > 100 | 0.64
